From patent US12599649B2, “Bioactive polypeptides for improvements in plant protection, growth and productivity” (priority 2017, dated 2026)
Values joined by “and” are separate entries in the source; they are usually repeats but may differ in a detail not shown here. Equal entries are not always repeated. No end group written: not given here. *: point of attachment. sulfo = O=S(=O)(O)*

How the values were obtained:
[1] = system: corn; assay: Foliar Flg22 and retro inverso Flg22 on corn, plant height (Example 7); assay type: in vivo; conditions: 1 μM
Protocol: Control plants were treated with water alone.

[2] = system: corn; assay: Foliar HpaG-like and At.PSKα on corn, plant height in non-stress and stress (Example 27); assay type: in vivo
[3] = system: corn; assay: Foliar At.PSKα on corn, field yield (Example 20); assay type: in vivo
Protocol: (§1) The effect of Phytosulfokine alpha (PSKα), a sulfonated bioactive priming polypeptide derived from Arabidopsis thaliana, on corn and soybean yield was tested. Corn and soybeans were cultivated in the field as described in Example 1 and 3. Arabidopsis thaliana PSKα (SEQ ID NO: 598) was applied at a final concentration of 1 μM in foliar spray with a surfactant and provided using a uniform application to the above ground plant parts of corn (hybrid 5140RR) and soybean (hybrid 375 NR). At.PSKα formulations were applied at the V5-V8 stage of development in corn and the V1-V4 stage of development in soybean. Corn and soybean plants treated with At.PSKα were compared to non-treated control plants (water). Treated plants were randomized at one location in four replicate blocks for comparisons to the controls. Yield was reported in Bushels per acre (Bu/Ac).

[4] = system: soybean; assay: Foliar At.PSKα on soybean, field yield (Example 20); assay type: in vivo
Protocol: as §1

[5] = system: soybean; assay: Foliar At.PSKα on soybean in non-stress and stress environments (Example 21); assay type: in vivo; conditions: V1-V4 foliar
Protocol: Soybean plants were grown as described in Example 6. The At.PSKα polypeptide (SEQ ID NO: 598) was applied as a foliar spray to the plants at the V1-V4 stage. Soybean plants treated with foliar applications of At.PSKα and control plants treated with water and surfactant alone were then grown in conditions described in Examples 7-9 that produced a non-stress and stress (heat and water deficit) environments. Table 37 describes the percentage change or increase in height reported for soybean plants treated with At.PSKα as a foliar spray at the V1-V4 growth stage.

[6] = system: soybean; assay: Soybean seed treatment with Flg22 polypeptides and RHPP, yield (Example 10); assay type: in vivo; conditions: 12 locations
Excerpt: A third study was set up to look at soybean seed treatment benefits of Bt.4Q7 Flg22, RI Bt.4Q7Flg22, Ec.RI Flg22, and RHPP as a seed treatment on soybean.

[7] = system: corn; assay: Foliar Flg22 polypeptides on corn, field yield trials (Example 1); assay type: in vivo; conditions: first year field trials, 10 locations, vs non-treated control
Protocol: Flg22 (SEQ ID NO 526) and Ec.RI Flg22 (SEQ ID 527) bioactive priming polypeptides on corn (BECK'S 5828 YH, 6175YE) yield was determined in 10 separate locations in the US Midwest (FIG. 2 and FIG. 3).
Four-row plots, 17.5 feet (5.3 meters) long were planted at all locations. […] Each hybrid was grown in at least three separate plots (replicates) at each location to account for field variability.
The final concentration in the spray tank was 25 nM after dilution in carrier rate of 10 gallons water/Ac […]. […] Retro-inverso polypeptides were applied during the first year field trials to compare with native Bt.4Q7Flg22. […] Each polypeptide was applied with a non-ionic surfactant at 0.5%. The effect of bioactive priming polypeptides was measured as the absolute changes in yield in bushels per acre (Bu/Ac). Additionally, the win rate was calculated: the percentage of testing locations at which one treatment has a yield advantage over other treatments (in this case, as compared to the non-treated control plants).
Each study was performed at between 10 and 11 sites. The end results of the study at V5-V8 at 0.33 Fl. oz/Ac (24.1 mL/Ha) was 5.75 Bu/Ac or 360.9 kg/Ha advantage, at 4 Fl. oz/Ac a 3.77 bu/Ac or 236.6 kg/Ha advantage, and at 8 Fl. oz/Ac a 5.05 Bu/Ac or 317 kg/Ha.

[8] = system: corn; assay: Corn seed treatment with Flg22 polypeptides, yield (Example 10); assay type: in vivo; conditions: second study, 12 locations
Protocol: The seed applications were provided using a 40 μM polypeptide stock diluted to the appropriate concentration in a slurry containing a fungicide, insecticide, beneficial bacteria, colorant and seed finisher (EverGol Energy (0.031 mg ai/seed), PONCHO/VOTiVO (0.6 mg ai/seed), Peridium 1006 (5 fl oz/cwt or 147.9 mL/cwt) and Pro-Ized Red Colorant (normal) (0.5 fl oz/cwt). Seed treatment was applied using a Wintersteiger HEGE II (Wintersteiger AG, Austria, Germany).
Seed was planted in 12 locations in the U.S. Midwest (IA, IL, IN). Sixteen randomized replicate blocks were harvested per each of the Flg22 polypeptide treatments consisting of Bt.4Q7Flg22 applied at 0.25 μM and 1.0 μM slurry concentration.
Replicated trials with 12 locations were set up as above. […] The Ec. Flg22 polypeptide gave 2.8 Bu/Ac (175.8 kg/Ha) advantage at 70% win rate, and the Ec.RI Flg22 gave no benefit.

[9] = system: corn; assay: Foliar E. coli flagellin polypeptides on V5-V8 corn, yield (Example 5); assay type: in vivo; conditions: V5-V8, 0.33 Fl. oz/Ac, 12 locations
Protocol: The effect of flagellin polypeptides derived from Escherichia coli on corn yield was then tested. Corn plants (Beck's 5828 YH) received an initial spray application at the V5-V8 stage of development with formulations containing the Ec.
FIG. 5 depicts yield across these 12 locations, normalized to the non-treated control plants and shown as an increase or a decrease in Bu/Ac compared to the control. […] Therefore, application of foliar sprays containing the Ec.Flg22 (SEQ ID NO: 526) bioactive priming polypeptides provided a beneficial growth response and yield benefit to corn plants when applied at the V5-V8 stage of development.

[10] = system: soybean; assay: Foliar Ec.Flg22 on V2-V3 soybean, plant height in growth room (Example 6); assay type: in vivo; conditions: 0.33 Fl. oz/Ac, 2 weeks after application
[11] = system: corn; assay: Corn plant height in non-stress and heat/water deficit stress environments (Example 8); assay type: in vivo; conditions: foliar 1 μM
Protocol: Control plants were treated only with water.

[12] = system: soybean; assay: Flg22 and RHPP on R2 soybean, field yield (Examples 3-4); conditions: second study, R2 foliar
[13] = system: soybean; assay: Soybean seed treatment with Flg22 polypeptides and cellobiose, yield (Example 38); assay type: in vivo; conditions: polypeptide at 1.0 μM (combination 0.33 μM each; cellobiose 1 mM)
Protocol: Seed treatments were applied to 1 soybean hybrid (variety) planted in 1 locations in the US Midwest (Columbia, MO). […] The application use rates per each seed treatment were held constant at 0.14 Fl. oz/Ac or 4.14 mL/unit. Final concentration of the Flg22 polypeptides in the slurry for were standardized to 1 uM per seed. The same final concentration of cellobiose that was applied in combination treatments with the Flg22 polypeptides was at 1.0 mM per seed. Four replicate plots per each seed treatment were randomized over the location. The average yield in Bu/Ac and the average change in Bu/Ac as compared to the control plants that received only the base seed treatment are reported in Table 58.

[14] = system: corn; assay: Corn seed treatment with Bt.4Q7Flg22 and Pa.Flg22, yield (Example 36); assay type: in vivo; conditions: 1 uM in slurry, 3 hybrids, 8 locations
Protocol: Seed treatment compositions of the Flg22 polypeptides were applied as described in Table 53 as Fl. oz per unit of corn or soy seeds in a total slurry volume containing the base seed treatment Bt.4Q7Flg22 from Bacillus thuringinesis (Composition 10) and Pa. Flg22 from Paenibacillus alvei (Composition 11). Final concentration of polypeptide in the slurry for Compositions 10 and 11 was 1 uM.
The average change in Bu/Ac was as compared to the corn plants grown from seed that received the only the base seed treatment (ST) and is reported in Table 54.

[15] = system: reactive oxygen species (ROS) production in corn tissue; assay: ROS activity assay, corn tissue (Examples 15-18); assay type: cell-based
[16] = system: reactive oxygen species (ROS) production in soybean leaf tissue; assay: ROS activity assay, soybean leaf discs (Examples 15-18); assay type: cell-based
[17] = system: Candidatus liberibacter asiaticus; conditions: in vivo
[18] = system: Pseudomonas syringae pv. actinidiae (PSA-V); assay: Potted kiwi disease trial, PSA-V leaf spot (Example 54); conditions: 6, 16 and 23 DAI
[19] = system: reactive oxygen species (ROS) production in Kiwi 'Hayward' leaf petioles; assay: ROS assay, kiwi leaf petioles (Example 54); assay type: cell-based, Actinidiae deliciosa; conditions: 100 nM peptide, 40 minutes time course, SEM in the row below
Protocol: To test the sensitivity of kiwi leaves to 22-amino acid fragments of flagellin, 1 mm slices were cut through Actinidiae deliciosa Kiwi ‘Hayward’ leaf petioles and floated in 150 μL of water in a 96-well plate, with one slice per well. […] In two independent experiments, a total of 6 kiwi leaf petiole samples were treated with each Flg22 polypeptide in Table 94. The average total RLU and standard error of the means (SEM) was calculated for each treatment. A two-tailed T-test was used to determine significance at the 90% confidence level (P<0.1) between treatments. Relative ROS production was determined for each polypeptide in comparison to total RLUs for the 100 nM Bt.4Q7Flg22 control.

Bt4Q7Flg 22 (DRLSSGKRINSASDDAAGLAIA; listed as Bacillus thuringiensis)
Δ Height (cm) ([1]; 3 to 5 weeks): 5.40 cm | Δ Height Normalized as a percentage of control height ([1]; vs water-treated control): +3.7%

At.PSKα: Phytosulfokine alpha, sulfonated polypeptide derived from Arabidopsis thaliana (Y(sulfo)IY(sulfo)TQ; listed as Arabidopsis thaliana)
Height (cm) and (STDEV) 3 weeks ([2]; corn, 3 weeks after emergence, measured before the foliar spray (baseline), HpaG-like 1 μM, At.PSKα 100 nM): 49.36 cm | Plant Height Normalized as a percentage of control height Stress ([2]; corn, 5 weeks, heat and water deficit stress, control surfactant alone): 107.8% | Plant Height Normalized as a percentage of control height Non-stress ([2]; corn, 5 weeks, control surfactant alone): 98.2% | Height (cm) after stress 5 weeks ([2]; corn, heat and water deficit stress, HpaG-like 1 μM, At.PSKα 100 nM foliar): 54.88 cm | Height (cm) after non-stress 5 weeks ([2]; corn, standard growth environment, HpaG-like 1 μM, At.PSKα 100 nM foliar): 58.62 cm | growth phenotype (plant height) vs control ([2]; heat and water deficit stress, HpaG-like 1 μM, PSKα): improved growth phenotype | yield increases Bu/Ac Foliar Corn ([3]; 1 μM foliar spray with surfactant at V5-V8, vs water control): 3.0 Bu/Ac | increase in overall yield ([3]; foliar 1 μM, V5-V8 corn): 3 Bu/Ac | yield increases Bu/Ac Foliar Soybean ([4]; 1 μM foliar spray with surfactant at V1-V4, vs water control): 0.8 Bu/Ac | yield increase ([4]; foliar 1 μM, V1-V4 soybean): 0.8 Bu/Ac | increase in height vs non-treated control ([5]; non-stress environment): 3.5% | increase in height vs non-treated control ([5]; stress (heat and water deficit) environments): 4.3%

AIAQGAADDKASNIRLGSSLRE (not fully specified (some residues); also: retro-inverso D-amino acids, exact chain order not given here; listed as Escherichia coli) [Ec.RI Flg22]
win rate [6]: 73% | yield advantage [6]: 1.8 Bu/Ac | win rate [7]: 50% | average yield increase ([7]; foliar spray 0.33 Fl. oz/Ac, V5-V8 corn): 1.9 Bu/Ac | yield advantage [8]: no benefit | average yield increase over non-treated plants [9]: 1.9 Bu/Ac | increase in plant height normalized to control [10]: 16% | plant height as percentage of control ([11]; heat/water stressed conditions): 103% | plant height as percentage of control ([11]; non-stressed conditions): 103% | yield increase ([12]; 100 nM in the tank): 0.6 Bu/Ac | win rate ([12]; 10-11 sites): 80%

GKLSSGLRINGASDDAAGLAIS (listed as Paenibacillus sp.) [Pa.Flg22]
Average Change in Bu/Ac compared to Untreated Control [13]: +0.28 Bu/Ac | yield increase vs base seed treatment [14]: 3.57 Bu/Ac | Avg. Activity (%) Corn (5828 YX) 5 nM polypeptide [15]: 135.3% and 103.61% | Avg. Activity (%) Soybean (297 R4) 100 nM polypeptide [16]: 112.5% and 132.95%

thionin "tagged": thionin polypeptide that comprised a phloem localization sequence (SEQ ID NO: 650) (RTCESQSHRFKGPCSRDSNCATVCLTEGFSGGDCRGFRRRCRCTRPCVFDEK)
Ct values compared to control trees [17]: higher average Ct values

TRLSSGLKINSAKDDAAGLQIA (listed as Pseudomonas syringae) [Flg22-PSA, Flg22 derived from Pseudomonas syringae pv. actinidiae]
PSA-V leaf spot symptoms in comparison to untreated control [18]: significantly reduced PSA-V leaf spot symptoms | Average Total Relative Light Units (RLUs) [19]: 124,550 RLUs
